One experiment has as its target B-Raf (Homo sapiens, UniProt P15056). The experiment is described as follows: Fluorescence Anisotropy Kinase Binding Assay (Assay 1). From the text:
Fluorescence Anisotropy Kinase Binding Assay
The concentration of kinase enzyme should preferably be ≧1×Kf. The concentration of fluorescent ligand required will depend on the instrumentation used, and the fluorescent and physicochemical properties. The concentration used must be lower than the concentration of kinase enzyme, and preferably less than half the kinase enzyme concentration. A typical protocol is:
All compounds are serially diluted in DMSO, then by a one step dilution into buffer of comparison, 50 mM HEPES, […] pH7.5, 1 mM CHAPS, 10 mM MgCL2, for the assay.
B-Raf Enzyme concentration: 1 nM
Fluorescent ligand concentration: 0.5 nM
Test compound concentration: 0.5 nM -100 uM
Components incubated in 10 ul final volume in LJL HE 384 type B black microtitre plate until equilibrium reached (Over 3 h, up to 30 h)
Fluorescence anisotropy read in an LJL Acquest.
• Ki=dissociation constant for inhibitor binding • Kf=dissociation constant for fluorescent ligand binding
The fluorescent ligand is the following compound:
which is derived from 5-[2-(4-aminomethylphenyl)-5-pyridin-4-yl]-1H-imidazol4-yl]-2-chlorophenol and rhodamine green.
(In fluorescence polarisation assays a small probe gives low polarisation when free and higher when bound to something large.)

Experiment [1] has as its system Human diploid foreskin fibroblasts (HFF). The experiment is described as follows: XTT 72 hr Growth Inhibition (Assay 3), HFF. It counts as cell-based. The conditions noted are these: Fibroblast, normal, B-Raf wt, Ras wt. The protocol:
(§1) XTT 72 hr Growth Inhibition Protocol for Mammalian Cultured Cells (Assay 3)
(§2) Human diploid foreskin fibroblasts (HFF) or human colon carcinoma (Colo 201) cells were grown in Dulbecco's modified Eagle's medium (DMEM) (Invitrogen/Life Technologies) containing 10% fetal bovine serum (FBS) and the antibiotics penicillin (100 Units/ml) and streotomycin (100 micrograms/ml) (Invitrogen/Life Technologies). Growth was at 37° C. in humidified 5% CO2 incubators in 75 cm^2 plastic flasks. Cells were harvested using 0.25% trypsin/1 mM ethylenediaminetetraacetic acid (EDTA), resuspended in growth medium, and counted using a hemocytometer. Flat-bottomed 96-well plates were seeded with 2×10^3 cells/well in a volume of 200 ul from trypsinized exponentially growing cultures. To “blank” wells, growth medium was added with no additions. Cells were incubated overnight to permit attachment.
(§3) Next day, medium from wells that contained cells was replaced with 180 microliters of fresh medium. Appropriate dilutions of test compounds were added to the wells from stock soloutions of compound dissolved in dimethyl sulfoxide (DMSO); final DMSO concentration in all wells was 0.2%. […] Absorbance at 450 nm was then determined using a 96-well UV plate reader (Molecular Devices). Under these conditions, absorbance of untreated control cells at 450 nm was at least 1.0 optical density unit/ml. […]
Background: Tetrazolium dyes change colour on reduction, which living cells bring about.

For experiment [2], the system named is human colon carcinoma (Colo 201) cells. Briefly: XTT 72 hr Growth Inhibition (Assay 3), Colo201. It counts as cell-based. The conditions noted are these: Colorectal cancer, B-Raf ND, Ras ND. The protocol:
as §1, §2, §3

Experiment [3] deals with colon carcinoma (Colo 205). The experiment is described as follows: Methylene Blue Growth Inhibition Assay (Assay 2), Colo205. In kind it is cell-based. The conditions noted are these: Homo sapiens, Colorectal cancer, B-Raf V599E, Ras wt.
Another experiment has as its system human melanoma A375P. Briefly: Methylene Blue Growth Inhibition Assay (Assay 2), A375P. It counts as cell-based. The conditions noted are these: B-Raf V599E, Ras wt.
The subject of the next experiment is human melanoma SKMEL3. The experiment is described as follows: Methylene Blue Growth Inhibition Assay (Assay 2), SKMEL3. It counts as cell-based. The conditions noted are these: SK-MEL3, B-Raf V599E, Ras wt.
The test system of a further experiment is human melanoma SKMEL2. The experiment is described as follows: Methylene Blue Growth Inhibition Assay (Assay 2), SKMEL2. The conditions noted are these: SK-MEL-2, B-Raf wt, [Q6IR]N-Ras. It counts as cell-based.

The values that follow come from US7297694B2, “Pyridylfurans and pyrroles as Raf kinase inhibitors” (SmithKline Beechum P.L.C., priority 2001, dated 2007).

Each structure is given as a SMILES string.

As a reminder, the Kd is the concentration at which binding is half-saturated. A lower Kd goes with tighter binding. One may read the IC50 as the concentration at which inhibition is half-maximal. A higher IC50 goes with weaker potency in that assay.

B-Raf, sequence (P15056 whole entry): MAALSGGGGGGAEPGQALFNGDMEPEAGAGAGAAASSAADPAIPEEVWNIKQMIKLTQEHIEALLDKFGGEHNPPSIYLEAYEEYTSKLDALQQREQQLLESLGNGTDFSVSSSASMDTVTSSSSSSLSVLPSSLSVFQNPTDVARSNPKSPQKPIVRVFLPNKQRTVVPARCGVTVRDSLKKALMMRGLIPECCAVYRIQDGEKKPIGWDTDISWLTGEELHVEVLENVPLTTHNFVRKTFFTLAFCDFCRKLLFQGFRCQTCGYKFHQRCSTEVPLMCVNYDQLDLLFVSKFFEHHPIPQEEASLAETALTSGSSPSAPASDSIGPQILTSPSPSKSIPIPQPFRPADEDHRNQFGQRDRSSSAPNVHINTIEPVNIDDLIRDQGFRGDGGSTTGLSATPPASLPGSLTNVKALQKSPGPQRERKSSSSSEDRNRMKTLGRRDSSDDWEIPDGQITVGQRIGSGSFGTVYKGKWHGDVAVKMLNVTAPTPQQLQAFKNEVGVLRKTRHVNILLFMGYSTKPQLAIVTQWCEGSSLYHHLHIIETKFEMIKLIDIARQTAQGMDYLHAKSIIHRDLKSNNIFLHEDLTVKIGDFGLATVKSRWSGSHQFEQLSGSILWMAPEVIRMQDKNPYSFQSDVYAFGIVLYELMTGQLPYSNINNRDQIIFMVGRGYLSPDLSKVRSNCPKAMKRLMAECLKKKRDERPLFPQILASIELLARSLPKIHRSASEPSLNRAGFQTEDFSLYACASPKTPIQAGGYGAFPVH

For `CN(C)CCOc1ccc(-c2cc(-c3ccc4c(c3)CCC4=NO)c(-c3ccncc3)o2)cc1` [Example 4, 5-{5-[4-(2-Dimethylaminoethoxy)phenyl]-2-pyridin-4yl-furan-3-yl}indan-1-one oxime], the Kd at B-Raf was determined as 1 nM. Further, the IC50 in experiment [1] worked out at 7100 nM; in experiment [2] it was 500 nM; in experiment [3] it was 110 nM; with human melanoma A375P it was 81 nM; in the experiment on human melanoma SKMEL3, 1000 nM; in the experiment with human melanoma SKMEL2 it was 220 nM.
